Reference: patent US11866450B2, “Modulators of Cystic Fibrosis Transmembrane Conductance regulator, pharmaceutical compositions, methods of treatment, and process for making the modulators” (priority 2018, dated 2024)
pEC50: −log10 of the molar value.

Target: CFTR-mediated chloride transport (Homo sapiens, UniProt P13569)
Type: cell-based
Details: enteroid cells incubated with test compound 18-24 hours, acute 10 μM forskolin and 300 nM Compound III; for Max. Activity: % of chloride transport with 3 μM Compound A, 3 μM Compound II and 300 nM acute Compound III triple combination control
Summary of the method: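 Membrane-potential fluorescence AUC over 15 min quantified CFTR chloride transport after acute forskolin (10 μM), IBMX (100 μM) and Compound III (300 nM) in chloride-free buffer. Human enteroid cells were pretreated with compound for 18–24 h; % Activity is relative to 3 μM Compound A + 3 μM Compound II + 300 nM Compound III.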

Chain of CFTR-mediated chloride transport (P13569 whole entry, looked up): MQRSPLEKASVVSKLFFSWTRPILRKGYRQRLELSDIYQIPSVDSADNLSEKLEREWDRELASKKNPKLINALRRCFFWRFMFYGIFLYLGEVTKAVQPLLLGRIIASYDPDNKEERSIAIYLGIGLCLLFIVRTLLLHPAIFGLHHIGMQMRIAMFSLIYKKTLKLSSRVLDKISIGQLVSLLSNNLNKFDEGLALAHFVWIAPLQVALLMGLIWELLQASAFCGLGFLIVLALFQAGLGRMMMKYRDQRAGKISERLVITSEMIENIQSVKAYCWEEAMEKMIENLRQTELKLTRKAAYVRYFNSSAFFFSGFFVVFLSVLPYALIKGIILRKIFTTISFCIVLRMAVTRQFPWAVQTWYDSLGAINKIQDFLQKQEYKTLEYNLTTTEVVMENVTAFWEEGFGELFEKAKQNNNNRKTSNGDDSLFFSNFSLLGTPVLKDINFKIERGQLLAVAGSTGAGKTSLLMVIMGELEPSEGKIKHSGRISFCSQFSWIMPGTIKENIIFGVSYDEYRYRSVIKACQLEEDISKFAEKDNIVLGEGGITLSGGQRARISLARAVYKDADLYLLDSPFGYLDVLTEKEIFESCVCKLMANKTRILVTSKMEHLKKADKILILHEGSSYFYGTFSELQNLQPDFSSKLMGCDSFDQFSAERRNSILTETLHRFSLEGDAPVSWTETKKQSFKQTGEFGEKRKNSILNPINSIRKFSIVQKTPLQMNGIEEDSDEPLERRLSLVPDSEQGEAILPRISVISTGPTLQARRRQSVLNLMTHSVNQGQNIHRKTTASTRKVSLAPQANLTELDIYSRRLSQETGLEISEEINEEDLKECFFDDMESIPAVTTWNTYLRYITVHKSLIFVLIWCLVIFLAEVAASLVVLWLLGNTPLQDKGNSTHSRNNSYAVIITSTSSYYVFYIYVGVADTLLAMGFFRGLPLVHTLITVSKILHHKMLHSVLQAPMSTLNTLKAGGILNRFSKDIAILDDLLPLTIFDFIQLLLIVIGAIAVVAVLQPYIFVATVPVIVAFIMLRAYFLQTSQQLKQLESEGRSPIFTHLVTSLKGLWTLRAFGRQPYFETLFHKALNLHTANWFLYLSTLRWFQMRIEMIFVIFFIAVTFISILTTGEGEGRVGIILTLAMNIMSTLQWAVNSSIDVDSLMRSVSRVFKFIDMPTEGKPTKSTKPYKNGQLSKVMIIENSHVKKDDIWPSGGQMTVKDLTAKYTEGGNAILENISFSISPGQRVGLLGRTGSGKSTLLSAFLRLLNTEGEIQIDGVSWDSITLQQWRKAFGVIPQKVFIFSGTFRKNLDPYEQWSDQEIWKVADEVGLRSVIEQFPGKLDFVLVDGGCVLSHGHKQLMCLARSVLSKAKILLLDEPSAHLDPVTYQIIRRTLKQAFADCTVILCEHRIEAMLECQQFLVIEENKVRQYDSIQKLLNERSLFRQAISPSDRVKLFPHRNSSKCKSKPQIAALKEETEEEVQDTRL

Row | SMILES | pEC50 | Max. Activity
1 | CC1(C)C[C@@H]2CCCNc3cccc(n3)S(=O)(=O)NC(=O)c3ccc(N4CCN(CCC5(C(F)(F)F)CC5)C4=O)nc3N1C2 [Compound 211, (14S)-12,12-Dimethyl-8-(2-oxo-3-{2-[1-(trifluoromethyl)cyclopropyl]ethyl}imidazolidin-1-yl)-2λ^6-thia-3,9,11,18,23-pentaazatetracyclo[17.3.1.111,14.05,10]tetracosa-1(22),5,7,9,19(23),20-hexaene-2,2,4-trione] | > 6.00 | ++ (++ is 30-60%)
2 | CC1(C)C[C@@H]2CCCNc3cc(O)cc(n3)S(=O)(=O)NC(=O)c3ccc(-n4ccc(OCCC5C6(CC6)C56CC6)n4)nc3N1C2 [Compound 264, (14S)-8-[3-(2-{Dispiro[2.0.2.1]heptan-7-yl}ethoxy)-1H-pyrazol-1-yl]-21-hydroxy-12,12-dimethyl-2λ^6-thia-3,9,11,18,23-pentaazatetracyclo[17.3.1.111,14.05,10]tetracosa-1(23),5,7,9,19,21-hexaene-2,2,4-trione] | > 6.00 | +++ (+++ is >60%)
3 | CC1(C)C[C@@H]2CN1c1nc(-n3ccc(OCCC(C4CC4)C4CC4)n3)ccc1C(=O)NS(=O)(=O)c1cccc(n1)NCCO2 (single isomer, unassigned) [Compound 163, 8-[3-(3,3-dicyclopropylpropoxy)-1H-pyrazol-1-yl]-12,12-dimethyl-15-oxa-2λ^6-thia-3,9,11,18,23-pentaazatetracyclo[17.3.1.111,14.05,10]tetracosa-1(23),5,7,9,19,21-hexaene-2,2,4-trione] | > 6.00 | ++ (++ is 30-60%)
4 | CC1(C)C[C@H]2CCCCCNc3cccc(n3)S(=O)(=O)NC(=O)c3ccc(-n4ccc(OCCC5(C(F)(F)F)CC5)n4)nc3N1C2 (single isomer, unassigned) [Compound 63, 12,12-dimethyl-8-(3-{2-[1-(trifluoromethyl)cyclopropyl]ethoxy}-1H-pyrazol-1-yl)-2λ^6-thia-3,9,11,20,25-pentaazatetracyclo[19.3.1.111,14.05,10]hexacosa-1(24),5,7,9,21(25),22-hexaene-2,2,4-trione] | > 6.00 | +++ (+++ is >60%)
5 | Cc1nn2cc1S(=O)(=O)NC(=O)c1ccc(-n3ccc(OCC(C)(C)C(F)(F)F)n3)nc1N1C[C@H](CCC2)CC1(C)C (single isomer, unassigned) [Compound 291, 12,20,20-trimethyl-4-[3-(3,3,3-trifluoro-2,2-dimethylpropoxy)-1H-pyrazol-1-yl]-10λ^6-thia-1,3,9,13,14-pentaazatetracyclo[16.2.1.111,14.02,7]docosa-2,4,6,11(22),12-pentaene-8,10,10-trione] | > 6.00 | ++ (++ is 30-60%)
6 | CC1(C)C[C@@H]2CCCNc3cccc(n3)S(=O)(=O)NC(=O)c3ccc(N4CCN(CCC(C)(C)C(F)(F)F)C4=O)nc3N1C2 [Compound 223, (14S)-12,12-Dimethyl-8-[2-oxo-3-(4,4,4-trifluoro-3,3-dimethylbutyl)imidazolidin-1-yl]-2λ^6-thia-3,9,11,18,23-pentaazatetracyclo[17.3.1.111,14.05,10]tetracosa-1(22),5,7,9,19(23),20-hexaene-2,2,4-trione] | > 6.00 | +++ (+++ is >60%)
7 | CC1(C)C[C@@H]2CCCNc3cccc(n3)S(=O)(=O)NC(=O)c3ccc(N4CCN(CC(C)(C)C(F)(F)F)C4=O)nc3N1C2 [Compound 225, (14S)-12,12-dimethyl-8-[2-oxo-3-(3,3,3-trifluoro-2,2-dimethylpropyl)imidazolidin-1-yl]-2λ^6-thia-3,9,11,18,23-pentaazatetracyclo[17.3.1.111,14.05,10]tetracosa-1(22),5,7,9,19(23),20-hexaene-2,2,4-trione] | > 6.00 | ++ (++ is 30-60%)
8 | CC1(C)C[C@H]2CCCCn3ccc(n3)S(=O)(=O)NC(=O)c3ccc(-n4ccc(OCCC5(C(F)(F)F)CC5)n4)nc3N1C2 (single isomer, unassigned) [Compound 45, 21,21-dimethyl-4-(3-{2-[1-(trifluoromethyl)cyclopropyl]ethoxy}-1H-pyrazol-1-yl)-10λ^6-thia-1,3,9,14,23-pentaazatetracyclo[17.2.1.111,14.02,7]tricosa-2,4,6,11(23),12-pentaene-8,10,10-trione] | > 6.00 | +++ (+++ is >60%)
9 | CC1(C)C[C@H]2CCCNc3cccc(n3)S(=O)(=O)NC(=O)c3ccc(-n4ccc(OCC5C6(CC6)C56CC6)n4)nc3N1C2 (single isomer, unassigned) [Compound 106, 8-[3-({dispiro[2.0.2.1]heptan-7-yl}methoxy)-1H-pyrazol-1-yl]-12,12-dimethyl-2λ^6-thia-3,9,11,18,23-pentaazatetracyclo[17.3.1.111,14.05,10]tetracosa-1(22),5,7,9,19(23),20-hexaene-2,2,4-trione] | > 6.00 | +++ (+++ is >60%)
10 | CC1(C)C[C@H]2CCCOc3cccc(n3)S(=O)(=O)NC(=O)c3ccc(-n4ccc(OCCC5(C(F)(F)F)CC5)n4)nc3N1C2 (single isomer, unassigned) [Compound 49, 12,12-dimethyl-8-(3-{2-[1-(trifluoromethyl)cyclopropyl]ethoxy}-1H-pyrazol-1-yl)-18-oxa-2λ^6-thia-3,9,11,23-tetraazatetracyclo[17.3.1.111,14.05,10]tetracosa-1(22),5,7,9,19(23),20-hexaene-2,2,4-trione] | > 6.00 | +++ (+++ is >60%)
11 | CC(C)(C)CCN1CCN(c2ccc3c(n2)N2C(CCCNc4cccc(n4)S(=O)(=O)NC3=O)CCC2(C)C)C1=O (stereo not drawn) [Compound 232, 8-[3-(3,3-dimethylbutyl)-2-oxoimidazolidin-1-yl]-12,12-dimethyl-2λ^6-thia-3,9,11,19,24-pentaazatetracyclo[18.3.1.05,10.011,15]tetracosa-1(23),5,7,9,20(24),21-hexaene-2,2,4-trione] | < 5.52 | + (+ is <30%)
12 | CC1(C)C[C@@H]2CCCNc3nc(ccc3O)S(=O)(=O)NC(=O)c3ccc(-n4ccc(OCCCC5(C(F)(F)F)CC5)n4)nc3N1C2 [Compound 255, (14S)-20-hydroxy-12,12-dimethyl-8-(3-{3-[1-(trifluoromethyl)cyclopropyl]propoxy}-1H-pyrazol-1-yl)-2λ^6-thia-3,9,11,18,23-pentaazatetracyclo[17.3.1.111,14.05,10]tetracosa-1(22),5,7,9,19(23),20-hexaene-2,2,4-trione] | > 6.00 | ++ (++ is 30-60%)
13 | CC1(C)C[C@@H]2CCCNc3cccc(n3)S(=O)(=O)NC(=O)c3ccc(N4CCN(CC5CCC(F)(F)CC5)C4=O)nc3N1C2 [Compound 214, (14S)-8-{3-[(4,4-Difluorocyclohexyl)methyl]-2-oxoimidazolidin-1-yl}-12,12-dimethyl-2λ^6-thia-3,9,11,18,23-pentaazatetracyclo[17.3.1.111,14.05,10]tetracosa-1(22),5,7,9,19(23),20-hexaene-2,2,4-trione] | > 6.00 | ++ (++ is 30-60%)
14 | CC1(C)C[C@H]2CCn3ccc(n3)S(=O)(=O)NC(=O)c3ccc(-n4ccc(OCCCC5(C(F)(F)F)CC5)n4)nc3N1C2 (single isomer, unassigned) [Compound 279, 19,19-dimethyl-4-(3-{3-[1-(trifluoromethyl)cyclopropyl]propoxy}-1H-pyrazol-1-yl)-10λ^6-thia-1,3,9,14,21-pentaazatetracyclo[15.2.1.111,14.02,7]henicosa-2,4,6,11(21),12-pentaene-8,10,10-trione] | > 6.00 | ++ (++ is 30-60%)
15 | CC(C)(C)CCCC1CCN(c2ccc3c(n2)N2C[C@@H](CCCNc4cccc(n4)S(=O)(=O)NC3=O)CC2(C)C)C1=O (stereo partly drawn) [Compound 102, (14S)-8-[3-(4,4-Dimethylpentyl)-2-oxopyrrolidin-1-yl]-12,12-dimethyl-2λ^6-thia-3,9,11,18,23-pentaazatetracyclo[17.3.1.111,14.05,10]tetracosa-1(22),5,7,9,19(23),20-hexaene-2,2,4-trione] | > 6.00 | +++ (+++ is >60%)
16 | [2H]c1ccc2nc1NCCC[C@@H]1CN(c3nc(-n4ccc(OCCC5C6(CC6)C56CC6)n4)ccc3C(=O)NS2(=O)=O)C(C)(C)C1 [Compound 300, (14S)-8-[3-(2-{dispiro[2.0.2.1]heptan-7-yl}ethoxy)-1H-pyrazol-1-yl]-12,12-dimethyl(20-deuterio)-2λ^6-thia-3,9,11,18,23-pentaazatetracyclo[17.3.1.111,14.05,10]tetracosa-1(23),5,7,9,19,21-hexaene-2,2,4-trione] | > 6.00 | +++ (+++ is >60%)
17 | CC1(C)C[C@@H]2CN1c1nc(-n3ccc(OCCCC4(C(F)(F)F)CC4)n3)ccc1C(=O)NS(=O)(=O)c1cccc(n1)NCCO2 (single isomer, unassigned) [Compound 160, 12,12-dimethyl-8-(3-{3-[1-(trifluoromethyl)cyclopropyl]propoxy}-1H-pyrazol-1-yl)-15-oxa-2λ^6-thia-3,9,11,18,23-pentaazatetracyclo[17.3.1.111,14.05,10]tetracosa-1(23),5,7,9,19,21-hexaene-2,2,4-trione] | > 6.00 | +++ (+++ is >60%)
18 | CC1(C)C[C@H]2CCCCc3ccc(cc3)S(=O)(=O)NC(=O)c3ccc(-n4ccc(OCCC5(C(F)(F)F)CC5)n4)nc3N1C2 (single isomer, unassigned) [Compound 55, 12,12-Dimethyl-8-(3-{2-[1-(trifluoromethyl)cyclopropyl]ethoxy}-1H-pyrazol-1-yl)-2λ^6-thia-3,9,11-triazatetracyclo[17.2.2.111,14.05,10]tetracosa-1(21),5,7,9,19,22-hexaene-2,2,4-trione] | > 6.00 | +++ (+++ is >60%)
